The nature of data set [1]: Acute toxicity test, oral. Details: species or system Female ICR-mice. As to conditions: mouse, in vivo, mortality observed for a week, Litchfield-Wilcoxon. How it is done: Female ICR-mice of body weight of 20 to 24 g, 5 weeks after birth were used.
Eight animal per group were kept in a transparent polycage at room temperature of 23°±1° C., and RH of 60 to 70%.
After minutely pulverizing each one of the present compounds, the pulverized compound was suspended in an aqueous 5% sodium carboxymethylcellulose solution containing 20% of Tween-80. The aqueous suspension was forcibly orally administered by a metal stomach tube, the dose rate having been adjusted by changing the concentration of the present compound in the aqueous suspension.

Data set [2] deals with peptic ulcer due to pyloric ligation. In words: Effect on peptic ulcer due to pyloric ligation. The data set is classed as in vivo, male rats. As to conditions: 100 mg/kg, intraperitoneal; for Ulcer coefficient: 15 hours after pyloric ligation, control 41.1; for Rate of suppression of ulcer: versus control. How it is done:
(1) Effect on peptic ulcer due to pyloric ligation
Six groups (10 animals per group) of male rats weighting 180 to 200 g were subjected to ligation of their pylori under ether-anesthesia after fasting for 48 hours according to the method of Shay et al. (refer to Gastroenterology, 5, page 43 (1945)).
Just after subjecting to ligation, each of the present compound suspended in an aqueous physiological saline solution was intraperitoneally administered to each rat, the control being poured to with an aqueous physiological saline solution. Then, after 15 hours of fasting without taking water, the rats were sacrificed with ether and their stomachs were removed to examine under a microscope for anatomy. The length and width of the thus-formed ulcer in the stomach were determined and expressed by the product (mm^2), and the total sum of the products was represented as the ulcer coefficient.

For data set [3], the system named is peptic ulcer due to acetic acid. In words: Effect on peptic ulcer due to acetic acid (duodenal). The data set is classed as in vivo, male rats. As to conditions: for coefficient (ulcer coefficient) / Rate of suppression of ulcer: 100 mg/kg, oral; for coefficient (ulcer coefficient): 3 times a day for 10 days from third day of operation, control 8.0; for Rate of suppression of ulcer: 3 times a day for 10 days, versus control. The source says:
The inventors of the present invention, taking into account of these situations, added to the above-mentioned method of evaluation the effect of accelerating the cure of the peptic ulcer by orally administering the present compound and a commercialized anti-peptic ulcer medicine, respectivey to rats to which duodenal peptic ulcer due to acetic acid (refer to Okabe, 1971) considered to be most closely resembling to human peptic ulcer has been artificially formed.
(2) Effect on peptic ulcer due to acetic acid
Following the method of Okabe et al (refer to Amer. J. Dig. Dis., 16, […], 6 groups (15 animals per group) of male rats weighing 240 to 260 g were subjected to laparotomy under ether anesthesia in which a metal circular frame was placed on the serosa at a distance of 5 to 7 mm from the duodenal pylorus, 0.06 ml of glacial acetic acid was poured into the frame. After 30 seconds, the liquid containing the acetic acid was removed and then the frame was removed. The test compound suspended in an aqueous physiological saline solution was orally administered to the rat 3 times a day from the third day of the operation for consecutive 10 days. After the administration was over, the rats were sacrificed with ether, and their duodenum was removed to observe under a microscope for anatomy. The length and width of the thus-formed ulcer were measured and their product (expressed with mm^2) was recorded as the ulcer coefficient.

Another data set concerns peptic ulcer. As to conditions: cited from earlier work.

As a reminder, the LD50 is the dose expected to kill half of the subjects tested. Compound `COc1cc(C2NC(=O)C(C)S2)cc(OC)c1OC` (stereo not shown) [Compound 1, 2-(3,4,5-trimethoxyphenyl)-5-methylthiazolidine-4-one] showed a 50% lethal dose (LD50) at 168 h in data set [1] of 6400 mg/kg. Besides, in data set [2], the Ulcer coefficient worked out at 7.2 mm^2 and the “Rate of suppression of ulcer” value worked out at 82.5%. Moreover, in data set [3], the “coefficient (ulcer coefficient)” value amounted to 2.8 mm^2 and the “Rate of suppression of ulcer” value was 77.5%.
`CC(C)=CCCC(C)=CCCC(C)=CCCC(=O)OCC=C(C)CCC=C(C)C` [gefarnate, 3,7dimethyl-2,6-octadienyl 5,9,13trimethyl-4,8,12-tetradecatrienoate, reference compound]: in data set [2], the Ulcer coefficient is reported as 36.1 mm^2 and the “Rate of suppression of ulcer” value was “about 12%”. Also, in data set [2] (listed as Positive control), the “Rate of suppression of ulcer” value was determined as 12.2%. In addition, in data set [3], the “coefficient (ulcer coefficient)” value was determined as 6.4 mm^2 and the “Rate of suppression of ulcer” value is on record as 20.0%. Also, the “curative effect / effectiveness (in words)” value in data set [3] (acetic acid ulcer) is “only a slight effectiveness”.
On to `COc1ccccc1C1NC(=O)C(C)S1` (stereo not shown) [Compound 3, 2-(2-methoxyphenyl)-5-methylthiazolidine-4-one], for which the 50% lethal dose (LD50) at 168 h in data set [1] is greater than 8000 mg/kg. In data set [2], the Ulcer coefficient is given as 3.6 mm^2 and the “Rate of suppression of ulcer” value was determined as 91.2%. Moreover, in data set [3], the “coefficient (ulcer coefficient)” value amounted to 1.3 mm^2 and the “Rate of suppression of ulcer” value is on record as 83.8%.
As to `CC1(C)[C@@H](OC(=O)CCC(=O)O)CC[C@]2(C)[C@H]3C(=O)C=C4[C@@H]5C[C@@](C)(C(=O)O)CC[C@]5(C)CC[C@@]4(C)[C@]3(C)CC[C@@H]12` [carbenoxolone], the effect on ulcer-curing entry in the data set with peptic ulcer (commercialized medicine) is recorded as “excellent accelerating effect on the ulcer-curing”. Also, the side effects entry in the data set on peptic ulcer (in vivo) was “aldosterone-like side effects to cause hypertension and weakening of muscular function”.
Turning to `COc1ccc(C2NC(=O)C(C)S2)cc1` (stereo not shown) [Compound 4, 2-(4-methoxyphenyl)-5-methylthiazolidine-4-one], the LD50 at 168 h in data set [1] is greater than 8000 mg/kg. Moreover, in data set [2], the Ulcer coefficient came out at 4.1 mm^2 and the “Rate of suppression of ulcer” value was determined as 90.0%. Further, in data set [3], the “coefficient (ulcer coefficient)” value amounted to 1.5 mm^2 and the “Rate of suppression of ulcer” value is recorded as 81.3%.
`COc1ccc(C2NC(=O)C(C)S2)cc1OC` (stereo not shown) [Compound 2, 2-(3,4-dimethoxyphenyl)-5-methylthiazolidine-4-one] returned an LD50 at 168 h in data set [1] greater than 8000 mg/kg. Also, in data set [2], the Ulcer coefficient is listed as 6.5 mm^2 and the “Rate of suppression of ulcer” value is recorded as 84.2%. In data set [3], the “coefficient (ulcer coefficient)” value is 2.4 mm^2 and the “Rate of suppression of ulcer” value is recorded as 70.0%.

Source of the values: patent publication US4434172A, “2-Substituted-phenyl-5-alkylthiazolidine-4-one” (priority 1980, dated 1984).
